# Laboratory results taken from patent US11028054B2, “1, 4, 6-trisubstituted-2-alkyl-1H-benzo[d]imidazole derivatives as dihydroorotate oxygenase inhibitors” (Merck Patent GmbH, priority 2017, dated 2021).
# Target: DHODH (Homo sapiens (Human), UniProt Q02127)
# Test: Measurement of DHODH inhibitory enzyme activity (coupled DCIP reduction assay)
# Assay type: biochemical
# From the text: Measurement of DHODH Inhibitory Enzyme Activity (In Vitro Assays)
# The DHODH activity assay is a coupled enzyme assay in which oxidation of DHO and subsequent reduction of ubiquinone are stoichiometrically equivalent to the reduction of DCIP ([…]). The reduction of DCIP is accompanied by a loss of absorbance at 610 nm.
# Reagents used: L-Dihydroorotic acid, Sigma, D7128, 2,6-Dichloroindophenol sodium salt hydrate, sigma, D1878 Dimethyl sulfoxide (DMSO), spectroscopic grade purchased from Spectrochem, cat no. 0704209, B. no.—3183650 Decylubiquinone, Sigma, D7911.
# Preparation of Solutions/Reagents:
# Buffer Preparation: 50 mM tris HCl, 150 mM KCl, and pH 8.0, 0.8% triton.
# L-Dihydroorotic acid stock solution of 20 mM in buffer.
# 2, 6-Dichloroindophenol Sodium salt hydrate stock solution of 20 mM in buffer.
# Decylubiquinone stock solution of 20 mM in buffer.
# 5 μL of Dimethyl sulfoxide or a compound of formula (I) in DMSO solution was added to the wells of a 96 well plate. Compounds of formula (I) were measured at 10 μM.
# Protein along with buffer was added, so that the total volume including the DMSO was 87 μL. Compound and protein were incubated for half an hour at room temperature after mixing. 5 μL of 20 mM solution of L-Dihydroorotic acid, 5 μL of 2 mM solution of Decylubiquinone and 3 μL of 2 mM solution of 2, 6-Dichloroindophenol sodium salt hydrate were added to the above solution (total assay volume 100 μL). The mixture was stirred for 2 min and absorbance was recorded at every 10 min at 610 nanometers.
# Percent inhibition is calculated as follows 100*{(Abs610 for reaction containing compound)−(Abs610 for positive control) (Abs610 for no enzyme reaction)−(Abs610 for positive control) Reaction containing compound has compound, buffer, enzyme and substrates Positive control contains DMSO, buffer, enzyme and substrates No Enzyme reaction contains DMSO, buffer and substrates IC50 determination: A 2 mM DMSO stock solution of the selected 1, 4, 6-trisubstituted-2-alkyl-1H-benzo[d]imidazole derivatives of formula (I) of the present invention to be examined was prepared. Subsequent ⅓rd dilutions were made as follows:
# 5 μL of each stock of compound of formula (I) (solution indicated in column 4 of table) was used for each 100 μL assay. Therefore, 5 μL of the 2 mM stock provided 100 μL of 100 μM solution of compound of formula (I), when made up with buffer, protein and substrate. See also: Ulrich et al. (2001) Eur. J. Biochem. 268, 1861-1868.
# DHODH, sequence (Q02127 whole entry): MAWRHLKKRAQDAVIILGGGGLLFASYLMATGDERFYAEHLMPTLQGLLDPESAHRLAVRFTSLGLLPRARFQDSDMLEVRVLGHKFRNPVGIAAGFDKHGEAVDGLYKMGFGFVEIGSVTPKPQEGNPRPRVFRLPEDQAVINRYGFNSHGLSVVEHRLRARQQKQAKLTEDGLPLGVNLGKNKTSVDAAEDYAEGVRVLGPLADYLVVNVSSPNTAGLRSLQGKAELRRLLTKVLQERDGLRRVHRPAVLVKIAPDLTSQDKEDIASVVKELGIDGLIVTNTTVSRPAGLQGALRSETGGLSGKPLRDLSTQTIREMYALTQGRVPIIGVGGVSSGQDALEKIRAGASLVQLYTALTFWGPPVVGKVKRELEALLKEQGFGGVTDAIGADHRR
row,IC50 [µM],SMILES
1,0.001 to 0.0099,"Cc1nc2c(C(=O)O)cc(-c3ccc(-c4ccccc4CN4CCCC4)cc3)cc2[nH]1 [Example 46, 2-methyl-6-(2'-(pyrrolidin-1-ylmethyl)-[1,1'-biphenyl]-4-yl)-1H-benzo[d]imidazole-4-carboxylic acid.2,2,2-trifluoroacetic acid]"
2,0.001 to 0.0099,"Cc1nc2c(C(=O)O)cc(-c3ccc(-c4ccccc4CN4CC[C@@H](F)C4)cc3)cc2[nH]1 [Example 117, (R)-6-(2'-((3-fluoropyrrolidin-1-yl)methyl)-[1,1'-biphenyl]-4-yl)-2-methyl-1H-benzo[d]imidazole-4-carboxylic acid.2,2,2-trifluoroacetic acid]"
3,0.01 to 0.099,"Cc1nc2c(C(=O)O)cc(-c3ccc(-c4ccccc4CN4CCCCC4)cc3)cc2[nH]1 [Example 42, 2-methyl-6-(2'-(piperidin-1-ylmethyl)-[1,1'-biphenyl]-4-yl)-1H-benzo[d]imidazole-4-carboxylic acid.2,2,2-trifluoroacetic acid]"
4,0.01 to 0.099,"Cc1nc2c(C(=O)O)cc(-c3ccc(-c4cccc(CN5CCS(=O)(=O)CC5)c4)cc3)cc2[nH]1 [Example 36, 6-(3'-((1,1-dioxidothiomorpholino)methyl)-[1,1'-biphenyl]-4-yl)-2-methyl-1H-benzo[d]imidazole-4-carboxylic acid.2,2,2-trifluoroacetic acid]"
5,0.01 to 0.099,"Cc1nc2c(C(=O)O)cc(-c3ccc(-c4c(C)cccc4C)cc3)cc2[nH]1 [Example 145, 6-(2',6'-dimethyl-[1,1'-biphenyl]-4-yl)-2-methyl-1H-benzo[d]imidazole-4-carboxylic acid]"
6,0.01 to 0.099,"Cc1nc2c(C(=O)O)cc(-c3c(F)c(F)c(-c4ccc(CN5CCCC5)cc4)c(F)c3F)cc2[nH]1 [Example 62, 2-methyl-6-(2,3,5,6-tetrafluoro-4'-(pyrrolidin-1-ylmethyl)-[1,1'-biphenyl]-4-yl)-1H-benzo[d]imidazole-4-carboxylic acid.2,2,2-trifluoroacetic acid]"
7,0.01 to 0.099,"Cc1nc2c(C(=O)O)cc(-c3ccc(-c4ccccc4CN4CCOCC4)cc3)cc2[nH]1 [Example 45, 2-methyl-6-(2'-(morpholinomethyl)-[1,1'-biphenyl]-4-yl)-1H-benzo[d]imidazole-4-carboxylic acid.2,2,2-trifluoroacetic acid]"
8,0.001 to 0.0099,"Cc1nc2c(C(=O)O)cc(-c3ccc(-c4c(F)cccc4CN4CCCC4)cc3)cc2[nH]1 [Example 150, 6-(2'-fluoro-6'-(pyrrolidin-1-ylmethyl)-[1,1'-biphenyl]-4-yl)-2-methyl-1H-benzo[d]imidazole-4-carboxylic acid.2,2,2-trifluoroacetic acid]"
9,> 0.1,"Cc1nc2c(C(=O)O)cc(-c3ccc(-c4cccc(F)c4F)cc3)cc2[nH]1 [Example 4, 6-(2',3'-difluoro-[1,1'-biphenyl]-4-yl)-2-methyl-1H-benzo[d]imidazole-4-carboxylic acid]"

# The remaining lines, values behind:
row,SMILES,IC50 [µM]
1,"Cc1nc2c(C(=O)O)cc(-c3ccc(-c4cccc(OCc5ccccc5)c4)cc3)cc2[nH]1 [Example 15, 6-(3'-(benzyloxy)-[1,1'-biphenyl]-4-yl)-2-methyl-1H-benzo[d]imidazole-4-carboxylic acid]",0.01 to 0.099
2,"Cc1nc2c(C(=O)O)cc(-c3ccc(-c4cccc(O)c4)cc3)cc2[nH]1 [Example 16, 6-(3'-hydroxy-[1,1'-biphenyl]-4-yl)-2-methyl-1H-benzo[d]imidazole-4-carboxylic acid]",0.01 to 0.099
3,"Cc1nc2c(C(=O)O)cc(-c3ccc(-c4ccccc4OCc4ccccc4)cc3)cc2[nH]1 [Example 17, 6-(2'-(benzyloxy)-[1,1'-biphenyl]-4-yl)-2-methyl-1H-benzo[d]imidazole-4-carboxylic acid]",0.01 to 0.099
4,"Cc1nc2c(C(=O)O)cc(-c3c(F)c(F)c(-c4ccc(CN5CCCC(F)(F)C5)cc4)c(F)c3F)cc2[nH]1 [Example 64, 6-(4'-((3,3-difluoropiperidin-1-yl)methyl)-2,3,5,6-tetrafluoro-[1,1'-biphenyl]-4-yl)-2-methyl-1H-benzo[d]imidazole-4-carboxylic acid.2,2,2-trifluoroacetic acid]",0.001 to 0.0099
5,"Cc1nc2c(C(=O)O)cc(-c3ccc(-c4cccc(CO)c4)cc3)cc2[nH]1 [Example 90, 6-(3'-(hydroxymethyl)-[1,1'-biphenyl]-4-yl)-2-methyl-1H-benzo[d]imidazole-4-carboxylic acid]",0.01 to 0.099
6,"Cc1nc2c(C(=O)O)cc(-c3c(F)c(F)c(-c4ccc(CN5CCCCC5)cc4)c(F)c3F)cc2[nH]1 [Example 61, 2-methyl-6-(2,3,5,6-tetrafluoro-4'-(piperidin-1-ylmethyl)-[1,1'-biphenyl]-4-yl)-1H-benzo[d]imidazole-4-carboxylic acid.2,2,2-trifluoroacetic acid]",0.001 to 0.0099
7,"Cc1nc2c(C(=O)O)cc(-c3ccc(-c4ccccc4O)cc3)cc2[nH]1 [Example 23, 6-(2'-hydroxy-[1,1'-biphenyl]-4-yl)-2-methyl-1H-benzo[d]imidazole-4-carboxylic acid]",0.01 to 0.099
8,"Cc1nc2c(C(=O)O)cc(-c3c(F)c(F)c(-c4cccc(CNC(C)C)c4)c(F)c3F)cc2[nH]1 [Example 59, 2-methyl-6-(2,3,5,6-tetrafluoro-3'-((isopropylamino)methyl)-[1,1'-biphenyl]-4-yl)-1H-benzo[d]imidazole-4-carboxylic acid.2,2,2-trifluoroacetic acid]",0.01 to 0.099
9,"Cc1nc2c(C(=O)O)cc(-c3c(F)c(F)c(-n4c(C)ccc4C)c(F)c3F)cc2[nH]1 [Example 67, 6-(4-(2,5-dimethyl-1H-pyrrol-1-yl)-2,3,5,6-tetrafluorophenyl)-2-methyl-1H-benzo[d]imidazole-4-carboxylic acid]",0.001 to 0.0099
10,"Cc1nc2c(C(=O)O)cc(-c3c(F)c(F)c(-c4cccc(CN5CCCCC5)c4)c(F)c3F)cc2[nH]1 [Example 56, 2-methyl-6-(2,3,5,6-tetrafluoro-3'-(piperidin-1-ylmethyl)-[1,1'-biphenyl]-4-yl)-1H-benzo[d]imidazole-4-carboxylic acid.2,2,2-trifluoroacetic acid]",0.001 to 0.0099
11,"Cc1nc2c(C(=O)O)cc(-c3c(F)c(F)c(-c4cccc(CO)c4)c(F)c3F)cc2[nH]1 [Example 57, 2-methyl-6-(2,3,5,6-tetrafluoro-3'-(hydroxymethyl)-[1,1'-biphenyl]-4-yl)-1H-benzo[d]imidazole-4-carboxylic acid.2,2,2-trifluoroacetic acid]",0.001 to 0.0099
12,"Cc1nc2c(C(=O)O)cc(-c3ccc(-c4cccc(CNC(C)(C)C)c4)cc3)cc2[nH]1 [Example 39, 6-(3'-((tert-butylamino)methyl)-[1,1'-biphenyl]-4-yl)-2-methyl-1H-benzo[d]imidazole-4-carboxylic acid.2,2,2-trifluoroacetic acid]",0.01 to 0.099
13,"COc1cccc(-c2ccc(-c3cc(C(=O)O)c4nc(C)[nH]c4c3)cc2)c1F [Example 21, 6-(2'-fluoro-3'-methoxy-[1,1'-biphenyl]-4-yl)-2-methyl-1H-benzo[d]imidazole-4-carboxylic acid]",0.01 to 0.099
14,"Cc1nc2c(C(=O)O)cc(-c3c(F)c(F)c(-c4ccccc4CN4CCCCC4)c(F)c3F)cc2[nH]1 [Example 53, 2-methyl-6-(2,3,5,6-tetrafluoro-2'-(piperidin-1-ylmethyl)-[1,1'-biphenyl]-4-yl)-1H-benzo[d]imidazole-4-carboxylic acid.2,2,2-trifluoroacetic acid]",0.001 to 0.0099
15,"Cc1nc2c(C(=O)O)cc(-c3c(F)c(F)c(-c4ccccc4)c(F)c3F)cc2[nH]1 [Example 52, 2-methyl-6-(2,3,5,6-tetrafluoro-[1,1'-biphenyl]-4-yl)-1H-benzo[d]imidazole-4-carboxylic acid]",0.001 to 0.0099
16,"Cc1nc2c(C(=O)O)cc(-c3ccc(-n4c(C)ccc4C)cc3)cc2[nH]1 [Example 111, 6-(4-(2,5-dimethyl-1H-pyrrol-1-yl)phenyl)-2-methyl-1H-benzo[d]imidazole-4-carboxylic acid]",0.001 to 0.0099
17,"Cc1nc2c(C(=O)O)cc(-c3c(F)c(F)c(-c4cccc(CNC5CC5)c4)c(F)c3F)cc2[nH]1 [Example 60, 6-(3'-((cyclopropylamino)methyl)-2,3,5,6-tetrafluoro-[1,1'-biphenyl]-4-yl)-2-methyl-1H-benzo[d]imidazole-4-carboxylic acid.2,2,2-trifluoroacetic acid]",0.001 to 0.0099
18,"Cc1nc2c(C(=O)O)cc(-c3ccc(-c4ccc(O)cc4)cc3)cc2[nH]1 [Example 20, 6-(4'-hydroxy-[1,1'-biphenyl]-4-yl)-2-methyl-1H-benzo[d]imidazole-4-carboxylic acid]",0.01 to 0.099
